Experimental data published in EPA's CvTdb concentration-time database.

What was measured:
[1] = tested on: Rat; experiment: concentration in plasma after dosing; settings: 0.25 h; dosed: 2-Hydroxy-4-methoxybenzophenone; 500 mg/kg; oral; Male; F344
[2] = tested on: Rat; experiment: concentration in plasma after dosing; settings: dosed: 2-Hydroxy-4-methoxybenzophenone, 100 mg/kg, oral, Male, F344
[3] = tested on: Rat; experiment: concentration in plasma after dosing; settings: dosed: 2-Hydroxy-4-methoxybenzophenone, 500 mg/kg, oral, Male, F344
[4] = tested on: Mouse; experiment: concentration in plasma after dosing; settings: 2 h; dosed: 2-Hydroxy-4-methoxybenzophenone; 50 mg/kg; iv; Male; B6C3F1
[5] = tested on: Rat; experiment: concentration in plasma after dosing; settings: dosed: 2-Hydroxy-4-methoxybenzophenone, 8 mg/kg, iv, Male, F344
[6] = tested on: Mouse; experiment: concentration in plasma after dosing; settings: 0.25 h; dosed: 2-Hydroxy-4-methoxybenzophenone; 250 mg/kg; oral; Female; B6C3F1
[7] = tested on: Rat; experiment: concentration in plasma after dosing; settings: dosed: Nitrite, 20 mg/kg, iv, Male, F344
[8] = tested on: Rat; experiment: concentration in plasma after dosing; settings: dosed: Nitrite, 80 mg/kg, oral, Female, F344
[9] = tested on: Rat; experiment: concentration in plasma after dosing; settings: dosed: 678-39-7, 40 mg/kg, iv, Female, Harlan Sprague-Dawley
[10] = tested on: Rat; experiment: concentration in liver after dosing; settings: 6 h; dosed: Perfluorooctanoic acid; 80 mg/kg; oral; Female; Harlan Sprague Dawley
[11] = tested on: Rat; experiment: concentration in plasma after dosing; settings: dosed: Fluorotelomer alcohol 8+2, 12 mg/kg, oral, Male, Harlan Sprague Dawley
[12] = tested on: Rat; experiment: concentration in plasma after dosing; settings: 3 h; dosed: 678-39-7; 12 mg/kg; iv; Male; F344
[13] = tested on: Rat; experiment: concentration in kidney after dosing; settings: 192 h; dosed: Perfluorooctanoic acid; 12 mg/kg; oral; Male; Harlan Sprague Dawley
[14] = tested on: Rat; experiment: concentration in plasma after dosing; settings: dosed: 678-39-7, 40 mg/kg, iv, Female, Harlan Sprague-Dawley; remark: listed apart in the source
[15] = tested on: Rat; experiment: concentration in plasma after dosing; settings: 3 h; dosed: Fluorotelomer alcohol 8+2; 12 mg/kg; oral; Male; Harlan Sprague Dawley
[16] = tested on: Rat; experiment: concentration in liver after dosing; settings: 1 h; dosed: Fluorotelomer alcohol 8+2; 24 mg/kg; oral; Male; Harlan Sprague Dawley
[17] = tested on: Rat; experiment: concentration in kidney after dosing; settings: 12 h; dosed: Perfluorooctanoic acid; 80 mg/kg; oral; Female; Harlan Sprague Dawley
[18] = tested on: Rat; experiment: concentration in liver after dosing; settings: 192 h; dosed: Perfluorooctanoic acid; 12 mg/kg; oral; Male; Harlan Sprague Dawley
[19] = tested on: Rat; experiment: concentration in liver after dosing; settings: 6 h; dosed: Perfluorooctanoic acid; 80 mg/kg; oral; Female; Harlan Sprague Dawley; remark: listed apart in the source
[20] = tested on: Rat; experiment: concentration in plasma after dosing; settings: dosed: 678-39-7, 12 mg/kg, iv, Male, F344
[21] = tested on: Rat; experiment: concentration in liver after dosing; settings: 24 h; dosed: Perfluorooctanoic acid; 12 mg/kg; oral; Male; Harlan Sprague Dawley
[22] = tested on: Rat; experiment: concentration in plasma after dosing; settings: dosed: Potassium Perfluorobutane Sulfonate, 4 mg/kg, oral, Male, Harlan Sprague Dawley
[23] = tested on: Rat; experiment: concentration in plasma after dosing; settings: dosed: Potassium Perfluorobutane Sulfonate, 4 mg/kg, oral, Male, Harlan Sprague Dawley; remark: listed apart in the source
[24] = tested on: Rat; experiment: concentration in kidney after dosing; settings: 12 h; dosed: Potassium Perfluorobutane Sulfonate; 20 mg/kg; oral; Male; Harlan Sprague Dawley
[25] = tested on: Rat; experiment: concentration in plasma after dosing; settings: dosed: Potassium Perfluorobutane Sulfonate, 20 mg/kg, oral, Male, Harlan Sprague Dawley
[26] = tested on: Rat; experiment: concentration in kidney after dosing; settings: 6 h; dosed: Potassium Perfluorobutane Sulfonate; 20 mg/kg; oral; Male; Harlan Sprague Dawley
[27] = tested on: Rat; experiment: concentration in liver after dosing; settings: 12 h; dosed: Potassium Perfluorobutane Sulfonate; 20 mg/kg; oral; Male; Harlan Sprague Dawley
[28] = tested on: Rat; experiment: concentration in kidney after dosing; settings: 0.5 h; dosed: Potassium Perfluorobutane Sulfonate; 20 mg/kg; oral; Male; Harlan Sprague Dawley
[29] = tested on: Rat; experiment: concentration in plasma after dosing; settings: 0.75 h; dosed: Potassium Perfluorobutane Sulfonate; 4 mg/kg; iv; Female; Harlan Sprague-Dawley
[30] = tested on: rat; experiment: concentration in liver after dosing (ugEq/g tissue); settings: dosed: benzo[a]pyrene, iv, male, Wistar

COc1ccc(C(=O)c2ccccc2)c(O)c1 [2-Hydroxy-4-methoxybenzophenone]
Settings | concentration in plasma [ng/mL]
[1] | 902
[4] | 267
[6] | 88.3

Settings | concentration in plasma [ng/mL]
[2], 3 h | 21.2
[2], 10 min | 17.3
[3], 2.5 min | 6.4
[3], 4 h | 578
[5], 10 h | 6.58
[5], 10 min | 3950

O=N[O-] [Nitrite]
concentration in plasma [ng/mL]
Settings | 0.5 h | 0.75 h | 2 min | 4 h
[7] | – | 4000 | 2000 | –
[8] | 20500 | – | – | 4900

O=C(O)C(F)(F)C(F)(F)C(F)(F)C(F)(F)C(F)(F)C(F)(F)C(F)(F)F [Perfluorooctanoic acid]
concentration in plasma [ng/mL]
Settings | [9] | [11] | [14] | [20]
0.5 h | – | 79.5 | – | 235
0.75 h | 1830 | – | 1470 | –
9 h | – | 793 | – | 438
12 h | 528 | – | 372 | –

Settings | concentration in kidney [ng/g] | concentration in liver [ng/g] | concentration in plasma [ng/mL]
[10] | – | 130000 | –
[12] | – | – | 497
[13] | 21000 | – | –
[15] | – | – | 392
[16] | – | 676 | –
[17] | 67800 | – | –
[18] | – | 51800 | –
[19] | – | 160000 | –
[21] | – | 62500 | –

O=S(=O)([O-])C(F)(F)C(F)(F)C(F)(F)C(F)(F)F.[K+] [Potassium Perfluorobutane Sulfonate]
Settings | concentration in plasma [ng/mL]
[22], 1 h | 13800
[22], 24 h | 245
[23], 0.75 h | 13400
[23], 12 h | 4960
[25], 0.25 h | 24800
[25], 24 h | 848

Settings | concentration in kidney [ng/g] | concentration in liver [ng/g] | concentration in plasma [ng/mL]
[24] | 3890 | – | –
[26] | 13100 | – | –
[27] | – | 9420 | –
[28] | 9690 | – | –
[29] | – | – | 2530

c1ccc2c(c1)cc1ccc3cccc4ccc2c1c34 [benzo[a]pyrene]
concentration in liver, [30]
Settings | 2 mg/kg | 6 mg/kg | 15 mg/kg
0.5 h | 2.43 | 11.4 | 15.2
0.75 h | 1.34 | 11.1 | 13.1
1 h | 0.34 | 5.54 | 4.86
1.5 h | 0.91 | 1.32 | 8.51
2 h | 0.01 | 0.55 | 3.39
3 h | – | 0.15 | 0.72
4 h | – | 0.09 | 0.24
5 h | – | 0.06 | 0.14
5 min | 11.3 | 31.2 | 27.5
6 h | – | 0.06 | 0.16
8 h | – | 0.02 | 0.05
10 min | 6.52 | 24.3 | 29.8
20 min | 4.01 | 16.1 | 21.9
24 h | – | 0.01 | 0.01
32 h | – | 0.02 | –
